# Tested on: wild-type E. coli A-1261
# Test: Bacterial growth minimal inhibitory concentration of prodrugs, wild-type E. coli A-1261, with or without alkaline phosphatase or esterase
# Format: cell-based
# Protocol: Minimal Inhibitory Concentrations (MICs; mg/L) were determined in cation-adjusted Mueller-Hinton Broth by a microdilution method following the description given in “Methods for Dilution Antimicrobial Susceptibility Tests for Bacteria that Grow Aerobically”, Approved standard, 7th ed., Clinical and Laboratory Standards Institute (CLSI) Document M7-A7, Wayne, Pa., USA (2006).
# The compounds of Examples 6 and 21 were tested against wild-type E. coli A-1261 in the absence of alkaline phosphatase or esterase, in the presence of an alkaline phosphatase and in the presence of an esterase. The corresponding antibacterial test results are given in Table 2 hereafter (MICs in mg/L).
substance,measurement,setting,value
"(2R)-2-(3-((4-(5-((1-(3-hydroxypropyl)azetidin-3-yl)buta-1,3-diyn-1-yl)benzo[d]thiazol-2-yl)-2-methyl-2-(methylsulfonyl)butanamido)oxy)-3-oxopropyl)phenyl dihydrogen phosphate [Example 21]",MIC for E. coli A-1261 In the presence of an alkaline phosphatase (2 i.U./mL),alkaline phosphatase 2 i.U./mL,0.5 mg/L
same,MIC for E. coli A-1261 In the presence of an esterase (10 i.U./mL),esterase 10 i.U./mL,8 mg/L
same,MIC for E. coli A-1261 In the absence of alkaline phosphatase or esterase,no alkaline phosphatase or esterase,0.5 mg/L

# Source: US20190315731A1, “6-(BUTA-1,3-DIYN-1-YL)BENZO[D]THIAZOLE DERIVATIVES” (Idorsia Pharmaceuticals Ltd., priority 2016, published 2019)
